Where “and” joins values, the source holds several entries; their conditions need not be identical. Equal values may be shown once.
Key:
[1] = tested on: Salmonella typhimurium: TA1535, TA1537, TA1538, TA98 and TA100; assay: Ames Salmonella/microsome assay, five standard strains; format: cell-based; design: unit not given here; details: Ames plates, DMSO solvent
Experimental: (§1) This mutagenicity testing was performed using DMSO as the solvent. Six dose levels were tested in duplicate, with and without metabolic activation, in five tester strains (TA1535, TA1537, TA1538, TA98, and TA100). The tests were repeated to ensure reproducibility.
Ames test of the 2,4-di-(o-hydroxy-p-pyrrolidino phenyl) cyclobutene diylium-1,3-diolate (hydroxy pyrrolidino squarylium or OHPYRRSQ) of the present invention dye was conducted.
This compound was examined for mutagenic activity in the Ames Salmonella/microsome assay using the five standard strains of Salmonella typhimurium: TA1535, TA1537, TA1538, TA98 and TA100. All assays were performed in duplicate, both in the presence and the absence of a rat-liver metabolic activation system. DMSO was used as the solvent.
The compound was tested on two separate days at doses ranging from […]. Low-level S-9 was used in the first assay and high-level S-9 was used in the confirming assay.

TA98 = assay: Ames test for mutagenicity, tester strain TA98; format: cell-based, Salmonella typhimurium
Experimental: (§2) Ames test of the prior art dye 2,4-di-(o-hydroxy-p-dimethylamino phenyl) cyclobutene diylium-1,3- diolate was then conducted. This dye is of the type shown in Example 11 of aforesaid US-A-3,824,099.
as §1

[2] = Ames test for mutagenicity, tester strain TA98; format: cell-based, Salmonella typhimurium; details: read-out: TA98 × background
Experimental: as §2, §1

TA1538 = assay: Ames test for mutagenicity, tester strain TA1538; format: cell-based, Salmonella typhimurium
Experimental: as §2, §1

[3] = Ames test for mutagenicity, tester strain TA1538; format: cell-based, Salmonella typhimurium
Experimental: as §2, §1

[4] = purified dye, dimethylamino phenol precursor distilled, DMSO solvent, replicate Test no./Assay no.
[5] = without purification of the dye, replicate Assay no.

| SMILES | Dose level at and above which precipitate was observed [1] | TA98 × background (TA98; [4]) | TA98 × background (TA98; [5]) [× background] | fold induction ([2]; ames ta98, purified dye, dimethylamino phenol precursor distilled, DMSO solvent, replicate Test no./Assay no.) | fold induction ([2]; ames ta98, without purification of the dye, replicate Assay no.) | TA1538 × background (TA1538; [4]) | TA1548 × background (TA1538; [5]) [× background] | fold induction ([3]; ames ta1538, purified dye, dimethylamino phenol precursor distilled, DMSO solvent, replicate Test no./Assay no., read-out: TA1538 × background) | fold induction ([3]; ames ta1538, without purification of the dye, replicate Assay no., read-out: TA1548 × background) |
| --- | --- | --- | --- | --- | --- | --- | --- | --- | --- |
| O=C1C(=C2C=CC(=[N+]3CCCC3)C=C2O)C([O-])=C1c1ccc(N2CCCC2)cc1O [OHPYRRSQ, 2,4-di-(o-hydroxy-p-pyrrolidinophenyl) cyclobutene diylium-1,3-diolate] | ≥ 500 | – | – | – | – | – | – | – | – |
| CN(C)c1ccc(C2=C([O-])C(=C3C=CC(=[N+](C)C)C=C3O)C2=O)c(O)c1 [OHSQ, 2,4-di-(o-hydroxy-p-dimethylaminophenyl) cyclobutene diylium-1,3-diolate] | – | 2.3 × background and 2.7 × background and 2.90 × background | 3.3 | 2.4 | 2.6 | 2.9 × background and 2.8 × background and 3.3 × background | 6.8 | 2.9 | 4.9 |
